Results reported in patent US20230151363A1, “MODIFIED SHORT-INTERFERING RNA COMPOSITIONS AND THEIR USE IN THE TREATMENT OF CANCER” (THE RESEARCH FOUNDATION FOR THE STATE UNIVERSITY OF NEW YORK, priority 2020, published 2023).

Tested on: BCL-2 protein
Assay: Western immunoblot analysis of BCL-2 protein
Format: cell-based, human
Details: cancer cells treated with 5-FU alone
Experimental: Western immunoblot analysis. Twenty-four hours prior to transfection 1×10^5 cells were plated in 6 well plates. Cells were either transfected using Oligofectamine (Thermo Fischer) or no transfection vehicle, with 50 nM control (scrambled) siRNA (Thermo Fischer), unmodified siBCL2 or an exemplary modified siBCL2 siRNA. Three days following transfection protein was collected in RIPA buffer with protease inhibitor (Sigma). Equal amounts of protein (15 μg), were separated on 12% sodium dodecyl sulfate-polyacrylamide gels as described in Laemmli U K. Nature. 1970; 227(5259) pp. 680-685, the entire contents of which is incorporated herein by reference. Proteins were probed with anti-BCL2 antibody (1:1000) (Thermo Fischer) and anti-GAPDH antibody (1:100000) (Santa Cruz). Horseradish peroxidase conjugated secondary antibodies against mouse or rabbit (1:5000, Santa Cruz Biotech Inc.) were added. Protein bands were then visualized with autoradiography film using SuperSignal West Pico Chemiluminescent Substrate (Thermo Fischer).

O=c1[nH]cc(F)c(=O)[nH]1 [5-FU, 5-fluoro-1H-pyrimidine-2,4-dione]
BCL-2 expression (Western blot): does not result in reduction of BCL-2 expression
